# Results as given in patent US11622991B2, “Protocol for treatment of lupus nephritis” (Aurinia Pharmaceuticals Inc., priority 2017, dated 2023).
# System: lupus nephritis
# Experiment: Predictability of week 48 partial remission from early reduction in UPCR (Tables 4-8)
# Type: in vivo, human
# Method: In the study reported in Example 1, the predictability of outcomes based on markers at early time points were determined.
# This is important because it is undesirable to subject a patient to unnecessary treatment, even if the treatment is relatively safe.
# PR is defined as at least 50% reduction in proteinuria (i.e. UPCR).
# Sensitivity is defined as the probability that a subject showing PR at 48 weeks would have shown a favorable result with regard to the marker at the designated early time point. In the tables below, this is the ratio of the number of subjects with favorable marker results (early drop or normalization) to the total subjects with 48 week PR.
# Specificity is defined as the probability that a subject not showing PR at 48 weeks would have shown an unfavorable result with regard to the marker at the designated early time point. In the tables below, this is the ratio of the number of subjects with unfavorable marker results (no early drop or no normalization) to the total subjects with no 48 week PR.
# Positive predictive value is defined as the probability that a subject showing a favorable result with respect to the marker at an earlier time point would show PR at 48 weeks. In the tables below, this is the ratio of the number of subjects with favorable marker results who have 48 week PR to those with favorable marker results (early reduction or yes column).
# Negative predictive value is defined as the probability that a subject showing an unfavorable result with respect to the marker at an earlier time point would not show PR at 48 weeks. In the tables below, this is the ratio of the number of subjects with unfavorable marker results who have no PR at 48 weeks to the total subjects with unfavorable marker results (no early reduction or no column).
# [1] = 15% reduction in UPCR, Week 2, 23.7 mg BID
# [2] = 15% reduction in UPCR, Week 2, 39.5 mg BID
# [3] = 15% reduction in UPCR, Week 4, 23.7 mg BID
# [4] = 15% reduction in UPCR, Week 6, 39.5 mg BID
# [5] = 15% reduction in UPCR, Week 8, 39.5 mg BID
# [6] = 15% reduction in UPCR, Week 12, 23.7 mg BID
# [7] = 15% reduction in UPCR, Week 12, 39.5 mg BID
# [8] = 15% reduction in UPCR, Week 16, 23.7 mg BID
# [9] = 15% reduction in UPCR, Week 20, 23.7 mg BID
# [10] = 15% reduction in UPCR, Week 20, 39.5 mg BID
# [11] = 15% reduction in UPCR, Week 24, 23.7 mg BID
# [12] = 15% reduction in UPCR, Week 26, 23.7 mg BID
# [13] = 15% reduction in UPCR, Week 26, 39.5 mg BID
# [14] = 15% reduction in UPCR, Week 36, 23.7 mg BID
# [15] = 15% reduction in UPCR, Week 36, 39.5 mg BID
# [16] = 15% reduction in UPCR, Week 48, 23.7 mg BID
# [17] = 20% reduction in UPCR, Week 2, 23.7 mg BID
# [18] = 20% reduction in UPCR, Week 2, 39.5 mg BID
# [19] = 20% reduction in UPCR, Week 4, 23.7 mg BID
# [20] = 20% reduction in UPCR, Week 6, 23.7 mg BID
# [21] = 20% reduction in UPCR, Week 8, 23.7 mg BID
# [22] = 20% reduction in UPCR, Week 8, 39.5 mg BID
# [23] = 20% reduction in UPCR, Week 12, 23.7 mg BID
# [24] = 20% reduction in UPCR, Week 12, 39.5 mg BID
# [25] = 20% reduction in UPCR, Week 16, 23.7 mg BID
# [26] = 20% reduction in UPCR, Week 20, 23.7 mg BID
# [27] = 20% reduction in UPCR, Week 20, 39.5 mg BID
# [28] = 20% reduction in UPCR, Week 24, 23.7 mg BID
# [29] = 20% reduction in UPCR, Week 26, 23.7 mg BID
# [30] = 20% reduction in UPCR, Week 26, 39.5 mg BID
# [31] = 20% reduction in UPCR, Week 36, 23.7 mg BID
# [32] = 20% reduction in UPCR, Week 36, 39.5 mg BID
# [33] = 20% reduction in UPCR, Week 48, 23.7 mg BID
# [34] = 25% reduction in UPCR, Week 2, 23.7 mg BID
# [35] = 25% reduction in UPCR, Week 2, 39.5 mg BID
# [36] = 25% reduction in UPCR, Week 4, 23.7 mg BID
# [37] = 25% reduction in UPCR, Week 6, 23.7 mg BID
# [38] = 25% reduction in UPCR, Week 8, 23.7 mg BID
# [39] = 25% reduction in UPCR, Week 8, 39.5 mg BID
# [40] = 25% reduction in UPCR, Week 12, 23.7 mg BID
# [41] = 25% reduction in UPCR, Week 12, 39.5 mg BID
# [42] = 25% reduction in UPCR, Week 16, 23.7 mg BID
# [43] = 25% reduction in UPCR, Week 20, 23.7 mg BID
# [44] = 25% reduction in UPCR, Week 20, 39.5 mg BID
# [45] = 25% reduction in UPCR, Week 24, 23.7 mg BID
# [46] = 25% reduction in UPCR, Week 24, 39.5 mg BID
smiles,measurement,setting,value
C=C/C=C/C[C@@H](C)[C@@H](O)[C@H]1C(=O)N[C@@H](CC)C(=O)N(C)CC(=O)N(C)[C@@H](CC(C)C)C(=O)N[C@@H](C(C)C)C(=O)N(C)[C@@H](CC(C)C)C(=O)N[C@@H](C)C(=O)N[C@H](C)C(=O)N(C)[C@@H](CC(C)C)C(=O)N(C)[C@@H](CC(C)C)C(=O)N(C)[C@@H](C(C)C)C(=O)N1C [voclosporin],Early Reduction No,[1],30
same,No Week 48 Partial Remission Early Drop,[1],10
same,Week 48 Partial Remission No Early Drop,[1],16
same,Early Reduction No,[2],30
same,No Week 48 Partial Remission No Early Drop,[2],9
same,No Week 48 Partial Remission No Early Drop,[3],11
same,Week 48 Partial Remission No Early Drop,[3],9
same,No Week 48 Partial Remission No Early Drop,[4],4
same,Week 48 Partial Remission No Early Drop,[4],10
same,No Week 48 Partial Remission No Early Drop,"15% reduction in UPCR, Week 8, 23.7 mg BID",7
same,Early Reduction No,[5],9
same,No Week 48 Partial Remission No Early Drop,[5],4
same,No Week 48 Partial Remission No Early Drop,[6],4
same,Week 48 Partial Remission No Early Drop,[6],2
same,Early Reduction No,[7],9
same,No Week 48 Partial Remission No Early Drop,[7],4
same,Early Reduction No,[8],8
same,Week 48 Partial Remission No Early Drop,[8],3
same,Early Reduction No,"15% reduction in UPCR, Week 16, 39.5 mg BID",11
same,Early Reduction No,[9],3
same,No Week 48 Partial Remission No Early Drop,[9],3
same,Early Reduction No,[10],9
same,Week 48 Partial Remission No Early Drop,[10],4
same,Early Reduction No,[11],2
same,No Week 48 Partial Remission No Early Drop,[11],2
same,Early Reduction No,"15% reduction in UPCR, Week 24, 39.5 mg BID",10
same,Early Reduction No,[12],3
same,No Week 48 Partial Remission Early Drop,[12],9
same,No Week 48 Partial Remission No Early Drop,[12],3
same,Early Reduction No,[13],4
same,No Week 48 Partial Remission No Early Drop,[13],4
same,Early Reduction No,[14],4
same,No Week 48 Partial Remission Early Drop,[14],10
same,No Week 48 Partial Remission No Early Drop,[14],3
same,Week 48 Partial Remission No Early Drop,[14],1
same,Early Reduction No,[15],7
same,Week 48 Partial Remission No Early Drop,[15],1
same,Early Reduction No,[16],2
same,No Week 48 Partial Remission Early Drop,[16],9
same,No Week 48 Partial Remission No Early Drop,[16],2
same,No Week 48 Partial Remission Early Drop,"15% reduction in UPCR, Week 48, 39.5 mg BID",10
same,Early Reduction No,[17],33
same,No Week 48 Partial Remission Early Drop,[17],8
same,No Week 48 Partial Remission No Early Drop,[17],16
same,Early Reduction No,[18],34
same,No Week 48 Partial Remission No Early Drop,[18],10
same,No Week 48 Partial Remission No Early Drop,[19],11
same,Week 48 Partial Remission No Early Drop,[19],10
same,No Week 48 Partial Remission Early Drop,[20],11
same,No Week 48 Partial Remission No Early Drop,[20],7
same,Week 48 Partial Remission No Early Drop,"20% reduction in UPCR, Week 6, 39.5 mg BID",10
same,No Week 48 Partial Remission Early Drop,[21],11
same,No Week 48 Partial Remission No Early Drop,[21],8
same,Early Reduction No,[22],10
same,No Week 48 Partial Remission No Early Drop,[22],4
same,Early Reduction No,[23],7
same,Week 48 Partial Remission No Early Drop,[23],2
same,Early Reduction No,[24],9
same,No Week 48 Partial Remission No Early Drop,[24],4
same,Early Reduction No,[25],9
same,Week 48 Partial Remission No Early Drop,[25],3
same,Early Reduction No,"20% reduction in UPCR, Week 16, 39.5 mg BID",11
same,Early Reduction No,[26],4
same,No Week 48 Partial Remission No Early Drop,[26],4
same,Early Reduction No,[27],9
same,Week 48 Partial Remission No Early Drop,[27],4
same,Early Reduction No,[28],4
same,No Week 48 Partial Remission Early Drop,[28],11
same,No Week 48 Partial Remission No Early Drop,[28],3
same,Week 48 Partial Remission No Early Drop,[28],1
same,Early Reduction No,"20% reduction in UPCR, Week 24, 39.5 mg BID",11
same,Early Reduction No,[29],3
same,No Week 48 Partial Remission Early Drop,[29],9
same,No Week 48 Partial Remission No Early Drop,[29],3
same,Early Reduction No,[30],4
same,No Week 48 Partial Remission No Early Drop,[30],4
same,Early Reduction No,[31],4
same,No Week 48 Partial Remission Early Drop,[31],10
same,No Week 48 Partial Remission No Early Drop,[31],3
same,Week 48 Partial Remission No Early Drop,[31],1
same,Early Reduction No,[32],8
same,Week 48 Partial Remission No Early Drop,[32],2
same,Early Reduction No,[33],2
same,No Week 48 Partial Remission Early Drop,[33],9
same,No Week 48 Partial Remission No Early Drop,[33],2
same,No Week 48 Partial Remission Early Drop,"20% reduction in UPCR, Week 48, 39.5 mg BID",10
same,No Week 48 Partial Remission Early Drop,[34],8
same,No Week 48 Partial Remission No Early Drop,[34],16
same,No Week 48 Partial Remission No Early Drop,[35],10
same,Week 48 Partial Remission Early Drop,[35],33
same,No Week 48 Partial Remission No Early Drop,[36],11
same,Week 48 Partial Remission No Early Drop,[36],11
same,Week 48 Partial Remission No Early Drop,"25% reduction in UPCR, Week 4, 39.5 mg BID",16
same,No Week 48 Partial Remission Early Drop,[37],10
same,No Week 48 Partial Remission No Early Drop,[37],8
same,Week 48 Partial Remission No Early Drop,[37],8
same,No Week 48 Partial Remission Early Drop,[38],10
same,No Week 48 Partial Remission No Early Drop,[38],9
same,Early Reduction No,[39],10
same,No Week 48 Partial Remission No Early Drop,[39],4
same,Early Reduction No,[40],10
same,Week 48 Partial Remission No Early Drop,[40],4
same,Early Reduction No,[41],9
same,No Week 48 Partial Remission No Early Drop,[41],4
same,Early Reduction No,[42],10
same,No Week 48 Partial Remission Early Drop,[42],11
same,No Week 48 Partial Remission No Early Drop,[42],7
same,Week 48 Partial Remission No Early Drop,[42],3
same,Week 48 Partial Remission No Early Drop,"25% reduction in UPCR, Week 16, 39.5 mg BID",7
same,No Week 48 Partial Remission Early Drop,[43],11
same,Week 48 Partial Remission No Early Drop,[43],1
same,Early Reduction No,[44],9
same,Week 48 Partial Remission No Early Drop,[44],4
same,Early Reduction No,[45],4
same,No Week 48 Partial Remission Early Drop,[45],11
same,No Week 48 Partial Remission No Early Drop,[45],3
same,Week 48 Partial Remission No Early Drop,[45],1
same,No Week 48 Partial Remission No Early Drop,[46],7
same,Week 48 Partial Remission No Early Drop,[46],7
same,Early Reduction No,"25% reduction in UPCR, Week 26, 23.7 mg BID",4
